Literature values as cited in publication PMC3791449, “Mechanism of amyloid β−protein dimerization determined using single−molecule AFM force spectroscopy” (Scientific Reports, 2013).

Test system: Aβ(13−23) dimer
Conditions: antiparallel β−sheet structures; cited from earlier work

For “Aβ(13−23): Aβ(13−23) peptide of published MD simulations (HHQKLVFFAED; Amyloid-beta protein 42; UniProt P05067 684-694, looked up, fragment)”, the “dimer stability by MD simulation” value is given as “high dimer stability”.
